Data from PMC10097024, “Cytotoxic and Antibacterial Prenylated Acylphloroglucinols from Hypericum olympicum L” (Plants, 2023).
“And” between values parts separate entries of the source, which are not always exact repeats. Equal entries are not always repeated. Where two headings read alike, the source gives them in different places.

Assays:
[1] = tested on: Staphylococcus aureus—MRSA (NBIMCC 8327); test: MIC by broth microdilution; format: cell-based
Excerpt: (§1) The Gram-positive bacterial strains that were examined for susceptibility were: Staphylococcus aureus (ATCC 29213, American Type Cell Culture Collection, Manassas, VA, USA), Staphylococcus aureus—MRSA (NBIMCC 8327-resistant to methicillin and oxacillin, National Bulgarian Collection for Industrial Microorganisms and Cell Cultures, Sofia, Bulgaria), Enterococcus faecalis (ATCC 29212) and Streptococcus pyogenes (SAIMC 10535, Collection of the Stephan Angeloff Institute of Microbiology, Sofia, Bulgaria). The only Gram-negative bacterial strain used was Escherichia coli (ATCC 35218). Bacteria were maintained in Trypticase Soy Broth (TSB, Himedia, India) at 37 °C, aerobic conditions. For the experiments brain heart infusion (BHI) broth (#M210 HiMedia, Mumbai, India) was used for E. faecalis and S. pyogenes and Mueller Hinton broth (MHB, #M0405B) from Thermo Scientific-Oxoid (Basingstoke, UK)—for all other strains.
(§2) BMD was performed according to the following protocol of ISO 20776/1-2006 [117]. A bacterial suspension with density of 10^8 CFU/mL (0.5 McFarland standard, OD600) was prepared from an overnight grown liquid bacterial culture homogenized over vortex and brought to a working bacterial suspension (WBS) with concentration of 5×10^5 CFU/mL by being diluted 200× with MHB or BHI broth and homogenized over vortex again. Two-fold serial dilutions of compounds 3–5 was prepared in 96-well round bottom plates to a volume of 50 μL and final range of concentrations 100–0.2 μg/mL. Stock solutions were dissolved in ethanol and MHB was used as diluent and as test for absence of contamination. Three wells were left as blank samples and 6 wells were left for control samples. An equivalent volume (50 μL) of the WBS was inoculated to each well in the aforementioned plates achieve final bacterial density of […] with the exception of the blank wells. After 18–24 h incubation under aerobic standardized conditions at 37 °C the plates were examined. […] Antibiotics dissolved in sterile distilled water were used as referent positive controls. They were penicillin G (PEN, #B0500000, Merck KGaA, Darmstadt, Germany) for E. faecalis and S. pyogenes, gentamicin (GEN, #15750-037, 50 mg/mL, Gibco, Paisley, UK) for all bacteria except S. pyogenes and ciprofloxacin (CIP, Ciproflav:10 mg/mL, Polfa S.A. Warsaw Pharmaceutical Works, Starogard Gdanski, Poland) for E. faecalis. The range of concentrations were 0.004–2 mg/L for PEN, 0.008–4 mg/L for GEN and 0.005–2 mg/L for CIP. The requirements of EUCAST (European Committee on Antimicrobial Susceptibility Testing) for their MICs were followed for discussing the results. In the end the plates which contained active agents were subjected to assessment of the dehydrogenase activity of the bacteria.

[2] = tested on: Streptococcus pyogenes (SAIMC 10535); test: MIC by broth microdilution; format: cell-based
Excerpt: as §1, §2

[3] = tested on: Enterococcus faecalis (ATCC 29212); test: MIC by broth microdilution; format: cell-based
Excerpt: as §1, §2

[4] = tested on: Staphylococcus aureus (ATCC 29213); test: MIC by broth microdilution; format: cell-based
Excerpt: as §1, §2

MRSA biofilm = test: Biofilm assay of MRSA; format: cell-based, Staphylococcus aureus; conditions: for Absorbance at 550 nm of the MRSA biofilm (crystal violet): replicate wells; for IC50: read-out: MBIC50 (median biofilm inhibitory concentration)
Excerpt: as §1
The bacterial inoculum was prepared as described above for the BMD. […] After that an optimized protocol was applied for the visualization of the biofilm. Firstly, the supernatant was removed, and planktonic cells were removed by washing the wells carefully 3× with 200 μL/well PBS. Then, fixing of the remaining cells was performed by incubation with 200 μL/well methanol for 15 sec at room temperature. The methanol was removed and the plate was dried by air for 5–10 s. Next, 50 μL of 2% Hucker crystal violet was poured into the wells and excess stain was rinsed off by running tap water. After that, the cells were air dried and the biofilm formation in the wells was documented microscopically (40×, Inverted trinocular biological microscope model BIB-100 and digital camera B-CAM16, application software B-View, Boeco, Hamburg, Germany). Then the dye bound to biofilm in the wells was re-solubilized with 160 μL 33% acetic acid and the absorbance of each well was measured at 550 nm with lid (Table S1 in Supplementary Materials). […] MBIC were assessed visually and MBIC50 were calculated by GraphPad Prism software with a mathematical model for a dose–response relationship (variable slope) after normalization of the data and logarithmic transformation of the applied concentrations (X-data).

[5] = MRSA biofilm, assessed visually
[6] = Staphylococcus aureus, MRSA biofilm, interval in brackets
[7] = MRSA biofilm, interval in brackets

With `CC(C)=CCC[C@]1(C)[C@@H](CC=C(C)C)C[C@]2(C)C(=O)C(CC=C(C)C)=C(O)[C@@]1(C(=O)C(C)C)C2=O` [Compound 3, hyperpolyphyllirin/hyperibine J] the MIC ([1]; read-out: MIC) was 8 µg/mL and 16.6 µM, the MIC ([2]; read-out: MIC) was 31 µg/mL and 64.2 µM and the MIC ([3]; ATCC29212, read-out: MIC) was 8 µg/mL and 16.6 µM. For the same compound, the MIC [4] was 2.00 mg/L, the MIC ([4]; read-out: MIC) was 4.14 µM and the “Absorbance at 550 nm of the MRSA biofilm (crystal violet)” value (“Absorbance at 550 nm” for short) (MRSA biofilm; 0.125 mg/L) was 0.347 and 0.336. For the same compound, the “Absorbance at 550 nm” value (MRSA biofilm; 0.25 mg/L) was 0.376 and 0.403, the “Absorbance at 550 nm” value (MRSA biofilm; 0.5 mg/L) was 0.276 and 0.394 and the “Absorbance at 550 nm” value (MRSA biofilm; 1 mg/L) was 0.249 and 0.184. For the same compound, the “Absorbance at 550 nm” value (MRSA biofilm; 2 mg/L) was 0.353 and 0.444, the “Absorbance at 550 nm” value (MRSA biofilm; 4 mg/L) was 0.110 and 0.099 and the MBIC (MRSA biofilm; MRSA biofilm) was 4 mg/L. For the same compound, the “MBIC (minimum biofilm inhibitory concentration)” value (MRSA biofilm; MRSA biofilm) was 8.29 µM, the “MBIC (minimum biofilm inhibitory concentration)” value (MRSA biofilm; [5]) was 4.0 mg/L and the IC50 (MRSA biofilm; [6]) was 0.17 µg/mL and 350 nM.

“(1R,5R,7S,8R)-4-hydroxy-5,8-dimethyl-3,7-bis(3-methylbut-2-en-1-yl)-1-(2-methylbutanoyl)-8-(4-methylpent-3-en-1-yl)bicyclo[3.3.1]non-3-ene-2,9-dione [Compound 4]” gave an MIC [1] of 12.5 mg/L, an MIC ([1]; read-out: MIC) of 25.17 µM and an MIC [2] of 12.50 mg/L. For the same compound, the MIC ([2]; read-out: MIC) was 25.17 µM, the MIC [3] was 12.5 mg/L and the MIC ([3]; read-out: MIC) was 25.17 µM. The MIC [4] was 0.78 mg/L, the MIC ([4]; read-out: MIC) was 1.57 µM and the “Absorbance at 550 nm” value (MRSA biofilm; 0.78 mg/L) was 0.324 and 0.229 and 0.230. The “Absorbance at 550 nm” value (MRSA biofilm; 1.56 mg/L) was 0.248 and 0.194 and 0.193, the “Absorbance at 550 nm” value (MRSA biofilm; 3.13 mg/L) was 0.264 and 0,195 and 0,139 and the “Absorbance at 550 nm” value (MRSA biofilm; 6.25 mg/L) was 0.184 and 0.121 and 0.092. The “Absorbance at 550 nm” value (MRSA biofilm; 12.5 mg/L) was 0.152 and 0.150 and 0.072, the “MBIC (minimum biofilm inhibitory concentration)” value (MRSA biofilm; MRSA biofilm) was 25.17 µM and the “MBIC (minimum biofilm inhibitory concentration)” value (MRSA biofilm; [5]) was 12.5 mg/L. For the same compound, the “MBIC50 (median biofilm inhibitory concentration)” value (MRSA biofilm; [7]) was 0.67 (0.39 to 1.17) mg/L and the IC50 (MRSA biofilm; [7]) was 1350 nM.

In the case of `CC(C)=CCC[C@]1(C)[C@@H](CC=C(C)C)C[C@H]2C(=O)[C@]1(C(=O)C(C)C)C(=O)C(CC=C(C)C)=C2O` [Compound 5, (1S,5R,7S,8R)-4-hydroxy-1-isobutyryl-8-methyl-3,7-bis(3-methylbut-2-en-1-yl)-8-(4-methylpent-3-en-1-yl)bicyclo[3.3.1]non-3-ene-2,9-dione], the MIC [1] is reported as 1.00 mg/L, the MIC ([1]; read-out: MIC) is reported as 1 µg/mL and 2.14 µM and the MIC ([2]; read-out: MIC) is reported as 4 µg/mL and 8.53 µM. The MIC ([3]; ATCC29212, read-out: MIC) was 4 µg/mL and 8.53 µM, the MIC [4] was 1.00 mg/L and the MIC ([4]; ATCC29213, Staphylococcus aureus, read-out: MIC) was 0.78 µg/mL to 2 µg/mL and 1.57 µM to 4.14 µM. The MIC ([4]; read-out: MIC) was 2.14 µM, the “Absorbance at 550 nm” value (MRSA biofilm; 0.063 mg/L) was 0.978 and 1.044 and the “Absorbance at 550 nm” value (MRSA biofilm; 0.125 mg/L) was 0.926 and 0.790. For the same compound, the “Absorbance at 550 nm” value (MRSA biofilm; 0.25 mg/L) was 0.592 and 0.502, the “Absorbance at 550 nm” value (MRSA biofilm; 0.5 mg/L) was 0.534 and 0.342 and the “Absorbance at 550 nm” value (MRSA biofilm; 1 mg/L) was 0.332 and 0.406. For the same compound, the MBIC (MRSA biofilm; MRSA biofilm) was 0.5 mg/L, the “MBIC (minimum biofilm inhibitory concentration)” value (MRSA biofilm; MRSA biofilm) was 1.07 µM and the “MBIC (minimum biofilm inhibitory concentration)” value (MRSA biofilm; [5]) was 0.5 mg/L. The IC50 (MRSA biofilm; [6]) was 0.05 µg/mL and 120 nM.
